# Several values for one entry are separate records, joined by “and”; a condition that tells them apart may be missing. Equal entries are not always repeated.
# What was measured:
# Factor Xa = assay: anti-heparin assay, % Factor Xa inhibition at single concentration (chromogenic substrate S-2765); assay type: biochemical; details: Single concentration (10 ug/ml)
# Procedure: The following example illustrates the heparin antagonistic effects of polycationic compounds of the present invention. To determine the anti-heparin activity of the polycationic compounds an assay measuring the percent inhibition using a fixed concentration of polycationic compound or concentrations of polycationic compounds causing lysis of 50% of human red blood cells were conducted.
# 10 IU of anti-thrombin was dissolved in 10 ml of buffer, resulting in a 1 IU/ml stock solution (250×) of the anti-thrombin. The 1 IU/ml (250×) stock solution of anti-thrombin and a 336 mM stock solution of NaCl were diluted into a total volume of 50 μl buffer so that the final anti-thrombin concentration was 0.004 IU/sample well and the NaCl was 150 mM/sample well. 1 μl of the compound to be tested, final concentration 10 μg/ml (corresponding to 0.5 logarithmic antagonist dilution) is added to the sample well. The samples are mixed and allowed to incubate at room temperature for 20 minutes. 50 μl of factor Xa dissolved in buffer is added to the sample well to a final concentration of 0.14 knat/well (2 μl of the 7.1 kna/1 ml stock solution to a final sample well buffer volume of 100 μl). The samples were mixed and further incubated at room temperature for 10 minutes. 10 μl of a 4 mM stock solution of the substrate S-2765 was added to each sample well for a final concentration of 0.4 mM in each sample well. The samples were mixed and hydrolyses of the chromogenic substrate Z-D-Arg-Gly-Arg-pNA (S-2765), thus liberating the chromophoric group pNA (p-nitroaniline), was monitored at 405 nm. The samples were mixed every 30 seconds to maintain a uniform mixture. ThermoLabsystems Multiskan Spectrum spectrophotometer was used to measure the absorbance spectrums. The increase in absorbance was proportional to the enzyme (factor Xa) activity. The % inhibition of factor Xa was determined using a standard curve.
# [1] = tested on: FGF2-induced angiogenesis in the CAM model; assay: FGF2-induced angiogenesis in the chick chorioallantoic membrane (CAM) model; assay type: in vivo, chick embryo
# Procedure: The following example illustrates the anti-angiogenic effect of exemplary polycationic compounds of the present invention. Ten-day old embryos were purchased from Spafas, Inc. (Preston, Conn.) and were incubated at 37° C. with 55% relative humidity. In the dark with the help of a candling lamp, a small hole was punctured in the shell concealing the air sac with a hypodermic needle. A second hole was punctured in the shell on the broadside of the egg directly over an avascular portion of the embryonic membrane, as observed during candling. A false air sac was created beneath the second hole by the application of negative pressure to the first hole, which caused the chorioallantoic membrane (CAM) to separate from the shell. A window, approximately 1.0 cm^2, was cut in the shell over the dropped CAM with the use of a small crafts grinding wheel (Dremel, Division of Emerson Electric Company Racine, Wis.) which allowed direct access to the underlying CAM. Filter disks of #1 filter paper (Whatman International, United Kingdom) were soaked in 3 mg/mL cortisone acetate (Sigma, St. Louis, Mo.) in a solution of 95% ethanol and water and subsequently air dried under sterile conditions. FGF2 (Life Technologies, Gaithersburg, Md.) was used to grow vessels on the CAMs of 10 day old chick embryos. Sterile filter disks adsorbed with FGF2 dissolved in PBS at 1μg/mL were placed on growing CAMs. […] At 24 h, test compounds or control vehicle was added directly to CAM topically.
# CAM tissue directly beneath FGF2-saturated filter disk was resected from embryos treated 48 hours prior with test compound or control. Tissues were washed three times with PBS. Sections were placed in a 35-mm petri dish (Nalgen Nunc, Rochester, N.Y.) and examined under a SV6 stereomicroscope (Karl Zeiss, Thornwood, N.Y.) at 50× magnification. Digital images of CAM sections adjacent to filters were collected using a 3-CCD color video camera system (Toshiba America, New York, N.Y.) and analyzed using Image-Pro Plus software (Media Cybernetics, Silver Spring, Md.). Table 4 contains the number of vessel branch points contained in a circular region equal to the area of a filter disk counted for each section.
# CAM tissue directly beneath FGF2-saturated filter disk was resected from embryos treated 48 h prior with compound or control. Tissues were washed three times with PBS. Sections were placed in a 35-mm petri dish (Nalge Nunc, Rochester, N.Y.) and examined under a SV6 stereomicroscope (Karl Zeiss, Thornwood, N.Y.) at 50× magnification. Digital images of CAM sections adjacent to filters were collected using a 3-CCD color video camera system (Toshiba America, New York, N.Y.) and analyzed with the Image-Pro Plus software (Media Cybernetics, Silver Spring, Md.).
# heparin = assay: effect on coagulation time and heparin efficacy; details: Compound 26 0 mg/L
# Procedure: The following example illustrates the effect of a polycationic compound of the present invention on coagulation time. The anti-heparin assay as described herein was used. The assay contained either 1 mg/L, 2 mg/L or 4 mg/I of heparin and increasing amounts of Compound 26 was added.
Molecule,% FactorXa Inhibition (Factor Xa),also measured
CC(C)(C)c1cc(N)c(SCCN)c(NC(=O)c2cccc(C(=O)Nc3cc(C(C)(C)C)cc(N)c3SCCN)c2)c1 [Compound 3],2.855%,–
CC(C)(C)c1cc(NC(=O)c2cccc(C(=O)Nc3cc(C(C)(C)C)cc(NC(=O)[C@H](N)CCCCN)c3SCCN)c2)c(SCCN)c(NC(=O)[C@H](N)CCCCN)c1 [Compound 4],0.9517%,–
CC(C)(C)c1cc(NC(=O)c2cc(OCCN)cc(C(=O)Nc3cc(C(C)(C)C)cc(NC(=O)[C@H](N)Cc4ccccc4)c3SCCN)c2)c(SCCN)c(NC(=O)[C@H](N)Cc2ccccc2)c1 [Compound 5],39.77%,–
CC(C)(C)c1cc(NC(=O)CCCN)c(SCCN)c(NC(=O)c2cccc(C(=O)Nc3cc(C(C)(C)C)cc(NC(=O)CCCN)c3SCCN)c2)c1 [Compound 6],2.583%,–
CC(C)(C)c1cc(NC(=O)c2cccc(C(=O)Nc3cc(C(C)(C)C)cc(NC(=O)[C@H](N)Cc4ccccc4)c3SCCN)c2)c(SCCN)c(NC(=O)[C@H](N)Cc2ccccc2)c1 [Compound 8],7.41%,–
CC(C)(C)c1cc(N)c(SCCNC(=N)N)c(NC(=O)c2cccc(C(=O)Nc3cc(C(C)(C)C)cc(N)c3SCCNC(=N)N)c2)c1 [Compound 9],10.88% and 16.25%,–
CC(C)(C)c1cc(NC(=O)CCCCNC(=N)N)c(SCCNC(=N)N)c(NC(=O)c2cccc(C(=O)Nc3cc(C(C)(C)C)cc(NC(=O)CCCCNC(=N)N)c3SCCNC(=N)N)c2)c1 [Compound 10],20.8%,–
CC(C)(C)c1cc(NC(=O)CCCCN)c(SCCN)c(NC(=O)c2cccc(C(=O)Nc3cc(C(C)(C)C)cc(NC(=O)CCCCN)c3SCCN)c2)c1 [Compound 11],1.903%,–
CC(C)(C)c1cc(NC(=O)CCCCNC(=N)N)c(SCCN)c(NC(=O)c2cccc(C(=O)Nc3cc(C(C)(C)C)cc(NC(=O)CCCCNC(=N)N)c3SCCN)c2)c1 [Compound 12],9.381%,–
CC(C)(C)c1cc(NC(=O)c2cccc(C(=O)Nc3cc(C(C)(C)C)cc(NC(=O)c4cc(N)ccc4OCCCCCN)c3SCCN)c2)c(SCCN)c(NC(=O)c2cc(N)ccc2OCCCCCN)c1 [Compound 13],36.84%,–
CC(C)(C)c1cc(N)c(SCCNC(=N)N)c(NC(=O)c2cc(OCCNC(=N)N)cc(C(=O)Nc3cc(C(C)(C)C)cc(N)c3SCCNC(=N)N)c2)c1 [Compound 14],40.99%,–
CC(C)(C)c1cc(N)c(SCCN)c(NC(=O)c2cc(C(=O)Nc3cc(C(C)(C)C)cc(N)c3SCCN)c(OCCN)cc2OCCN)c1 [Compound 15],5.71%,–
CC(C)(C)c1cc(N)c(SCCNC(=N)N)c(NC(=O)c2cc(C(=O)Nc3cc(C(C)(C)C)cc(N)c3SCCNC(=N)N)c(OCCNC(=N)N)cc2OCCNC(=N)N)c1 [Compound 16],30.39%,–
CC(C)(C)c1cc(N)c(SCCNC(=N)N)c(NC(=O)c2cc(C(=O)Nc3cc(C(C)(C)C)cc(N)c3SCCNC(=N)N)c(OCCN)cc2OCCN)c1 [Compound 17],15.02%,–
CC(C)(C)c1cc(NC(=N)N)c(SCCN)c(NC(=O)c2cc(C(=O)Nc3cc(C(C)(C)C)cc(NC(=N)N)c3SCCN)c(OCCN)cc2OCCN)c1 [Compound 18],13.26%,–
CC(C)OC(=O)c1cc(NC(=O)c2cc(OCCN)cc(C(=O)Nc3cc(C(=O)OC(C)C)cc(NC(=O)[C@H](N)CCCNC(=N)N)c3SCCN)c2)c(SCCN)c(NC(=O)[C@H](N)CCCNC(=N)N)c1 [Compound 19],59.82%,–
CC(=O)Nc1cc(C(C)(C)C)cc(NC(=O)c2cccc(C(=O)Nc3cc(C(C)(C)C)cc(NC(C)=O)c3SCCNC(=N)N)c2)c1SCCNC(=N)N [Compound 20],7.852%,–
CC(C)(C)c1cc(N)c(SCCNC2=NCCN2)c(NC(=O)c2cccc(C(=O)Nc3cc(C(C)(C)C)cc(N)c3SCCNC3=NCCN3)c2)c1 [Compound 21],1.496%,–
CN(C)C(NCCSc1c(N)cc(C(C)(C)C)cc1NC(=O)c1cccc(C(=O)Nc2cc(C(C)(C)C)cc(N)c2SCCNC(N(C)C)=[N+](C)C)c1)=[N+](C)C [Compound 22],1.292%,–
CC(=O)Nc1cc(C(C)(C)C)cc(NC(=O)c2cccc(C(=O)Nc3cc(C(C)(C)C)cc(NC(C)=O)c3SCCN)c2)c1SCCN [Compound 23],1.224%,–
CC(=O)Nc1cc(C(C)(C)C)cc(NC(=O)c2cc(OCCN)cc(C(=O)Nc3cc(C(C)(C)C)cc(NC(C)=O)c3SCCN)c2)c1SCCN [Compound 24],1.835%,–
N=C(N)NCCCCC(=O)Nc1cccc(NC(=O)c2cc(C(=O)Nc3cccc(NC(=O)NCCCNC(=N)N)c3SCCN)c(OCCN)cc2OCCN)c1SCCN [Compound 28],44.3%,–
CC(C)(C)c1cc(N)c(SCCN)c(NC(=O)c2cc(C(=O)Nc3cc(C(C)(C)C)cc(N)c3SCCN)ncn2)c1 [Compound 33],32.02%,"% inhibition ± SEM ([1]; Table 3, 1.0 ug + FGF2 (1 ug)): 17 ± 18%; Branch pts ± SEM ([1]; Table 3, 1.0 ug + FGF2 (1 ug)): 160 ± 18"
COC(=O)c1cc(NC(=O)c2cc(NC(=O)c3cc(NC(=O)c4cc(N)ccc4OC)ccc3OCCN)ccc2OC)ccc1OCCN [Compound 52],45.48%,–
COC(=O)c1cc(NC(=O)c2cc(NC(=O)c3cc(NC(=O)c4cc(NC(=O)c5cc(NC(=O)c6cc(N)ccc6OC)ccc5OCCN)ccc4OC)ccc3OCCN)ccc2OC)ccc1OCCN [Compound 53],43.03%,–
COC(=O)c1cc(OCCN)ccc1NC(=O)c1cc(OCCC(C)C)ccc1NC(=O)c1cc(OCCN)ccc1C(O)O [Compound 54],19.99%,–
NCCc1cc(Br)cc(C#Cc2cccc(C#Cc3cc(Br)cc(CCN)c3)c2)c1 [Compound 55],46.5%,–
Magainin [reference compound],4.419%,–
"fibroblast growth factor 2 [FgF2, reference compound]",–,"Branch pts ± SEM ([1]; Table 2, FgF alone 1.0 ug/ml, n = 8): 155 ± 10; Branch pts ± SEM ([1]; Table 3, FgF2 alone 1.0 ug/ml): 177 ± 10"
heparin [reference compound],–,Coagulation Time (heparin; Heparin 1 mg/L): 50.8 s; Heparin Efficacy (heparin; Heparin 1 mg/L): 1; Coagulation Time (heparin; Heparin 2 mg/L): 110.8 s; Heparin Efficacy (heparin; Heparin 2 mg/L): 1; Coagulation Time (heparin; Heparin 4 mg/L): 214.9 s; Heparin Efficacy (heparin; Heparin 4 mg/L): 1

# Reference: US20140051762A1, “POLYCATIONIC COMPOUNDS AND USES THEREOF” (priority 2004, published 2014)
